Laboratory results published in patent US20250368625A1, “PIPERAZINES” (Grünenthal GmbH, priority 2024, published 2025).
Read-outs that look alike come from different tables or passages of the source.

Biological target: T1, human SSTR4 (Homo sapiens, UniProt P31391)
T1 construct: expressed in transfected cells; host or cells: CHO-K1
Experiment: hSSTR4 cAMP assay (cAMP accumulation, LANCE Ultra cAMP kit, CHO-K1 human SSTR4 Gi cell line)
Format: cell-based
Protocol: cAMP accumulation assay using a CHO-K1 human SSTR4 Gi cell line.
Quantification of intracellular cAMP was performed using the LANCE Ultra cAMP assay kit from Revvity according to the manufacturer's instructions. CHO-K1 human SSTR4 Gi cell were either seeded in a density of 3K cells per well into a 384 well plate and incubated at 37° C. and 5% CO2 for 18-20 h or a stock of frozen cells were defrosted and seeded in a density of 5K cells per well without any further cultivation directly prior to the assay in a total volume of 5 μL in stimulation buffer. For pre-cultured cells, medium was replaced with 5 μL stimulation buffer before the assay. Cells were then stimulated with forskolin (final concentration 10 μM) and test compound (SSTR4 agonist) in increasing concentrations in duplicates for 30 min at 25° C. After stimulation, cells were lysed by addition of 10 μL of detection buffer (provided with the kit) and cell lysates were further diluted to ensure final cAMP concentrations fitted well into the dynamic range of the test kit. 10 μL of the diluted lysates were then added to respective wells of an OptiPlate-384 microplate. Thereafter, 5 μL of 4× Eu-cAMP tracer working solution was added, followed by addition of 5 μL of ULight-anti-cAMP working solution. The plate was then incubated for 1 h at 25° C. before reading on a TR-FRET microplate instrument. Data were normalized to cAMP high (forskolin only) and low control (forskolin+100 nM SST14) before fitting to a 4-Paramter logistic function.
All data was generated according to the cAMP assay conditions described above in at least duplicate and results are averaged and rounded to two significant figures.

[1] = functional agonism, forskolin 10 μM stimulated CHO-K1 human SSTR4 Gi cells, 30 min at 25° C., at least duplicate, averaged, read-out: hSSTR4 EC50

T1 sequence (P31391 whole entry): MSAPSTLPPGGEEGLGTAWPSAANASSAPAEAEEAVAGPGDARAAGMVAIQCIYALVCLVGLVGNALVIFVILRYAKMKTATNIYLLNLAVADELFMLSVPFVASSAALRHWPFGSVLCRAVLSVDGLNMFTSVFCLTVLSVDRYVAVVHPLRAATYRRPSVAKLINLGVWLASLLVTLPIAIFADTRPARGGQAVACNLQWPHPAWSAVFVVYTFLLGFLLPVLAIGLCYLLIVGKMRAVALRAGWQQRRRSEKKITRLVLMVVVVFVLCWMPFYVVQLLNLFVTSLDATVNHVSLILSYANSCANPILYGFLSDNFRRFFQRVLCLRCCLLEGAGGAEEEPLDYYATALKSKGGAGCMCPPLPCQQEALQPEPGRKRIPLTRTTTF

Structure (SMILES)	EC50 [1] [nM]	EC50 (morpholinyl matched molecular pairs (from WO 2016 075240), same cAMP assay conditions, read-out: hSSTR4 EC50 nM (Comparative Example)) [nM]
CC(C)(NC(=O)[C@@H]1CNCCN1)c1ncc2c(Cl)cccn12 [SC-108, (S)-N-(2-(8-chloroimidazo[1,5-a]pyridin-3-yl)propan-2-yl)piperazine-2-carboxamide]	19	
Cn1cc(CN2CCNC[C@H]2C(=O)NC(C)(C)c2ncc3c(Cl)cccn23)cn1 [SC-106, (S)-N-(2-(8-chloroimidazo[1,5-a]pyridin-3-yl)propan-2-yl)-1-((1-methyl-1H-pyrazol-4-yl)methyl)piperazine-2-carboxamide]	1.5	
Cc1cccn2c(C(C)(C)NC(=O)[C@@H]3CN(CC4CCOCC4)CCN3)ncc12 [SC-057, (S)-N-(2-(8-methylimidazo[1,5-a]pyridin-3-yl)propan-2-yl)-4-((tetrahydro-2H-pyran-4-yl)methyl)piperazine-2-carboxamide]	20	
Cc1cccn2c(C(C)(C)NC(=O)[C@@H]3CN(CC4COC4)CCN3)ncc12 [SC-076, (S)-N-(2-(8-methylimidazo[1,5-a]pyridin-3-yl)propan-2-yl)-4-(oxetan-3-ylmethyl)piperazine-2-carboxamide]	620	
Cc1cccn2c(C(C)(C)NC(=O)[C@@H]3CNCCN3CC(C)(F)F)ncc12 [SC-019, (S)-1-(2,2-difluoropropyl)-N-(2-(8-methylimidazo[1,5-a]pyridin-3-yl)propan-2-yl)piperazine-2-carboxamide]	0.58	
Cc1cccn2c(C(C)(C)NC(=O)[C@@H]3CN(Cc4cnco4)CCN3)ncc12 [SC-062, (S)-N-(2-(8-methylimidazo[1,5-a]pyridin-3-yl)propan-2-yl)-4-(oxazol-5-ylmethyl)piperazine-2-carboxamide]	220	
Cc1cccn2c(C(C)(C)NC(=O)[C@@H]3CNCCN3CC3CC(F)(F)C3)nc(C)c12 [SC-115, (S)-1-((3,3-difluorocyclobutyl)methyl)-N-(2-(1,8-dimethylimidazo[1,5-a]pyridin-3-yl)propan-2-yl)piperazine-2-carboxamide]	0.34	
Cc1cccn2c(C(C)(C)NC(=O)C3CNCCN3CC3COC3)ncc12 (racemic) [SC-014, rac-N-(2-(8-methylimidazo[1,5-a]pyridin-3-yl)propan-2-yl)-1-(oxetan-3-ylmethyl)piperazine-2-carboxamide]	3.1	
CC(C)(NC(=O)[C@@H]1CNCCN1CC1CC(F)(F)C1)c1ncc2c(Cl)cccn12 [SC-107, (S)-N-(2-(8-chloroimidazo[1,5-a]pyridin-3-yl)propan-2-yl)-1-((3,3-difluorocyclobutyl)methyl)piperazine-2-carboxamide]	0.76	
CC(C)(NC(=O)[C@@H]1CNCCO1)c1nnc2c(Cl)cccn12		> 10000
Cc1cccn2c(C(C)(C)NC(=O)[C@@H]3CN(C(=O)c4cnn(C(C)C)c4)CCN3)ncc12 [SC-081, (S)-4-(1-isopropyl-1H-pyrazole-4-carbonyl)-N-(2-(8-methylimidazo[1,5-a]pyridin-3-yl)propan-2-yl)piperazine-2-carboxamide]	> 10000	
Cc1cccn2c(C(C)(C)NC(=O)[C@@H]3CNCCN3CC(F)(F)F)ncc12 [SC-017, (S)-N-(2-(8-methylimidazo[1,5-a]pyridin-3-yl)propan-2-yl)-1-(2,2,2-trifluoroethyl)piperazine-2-carboxamide]	0.2	
Cc1cccn2c(C(C)(C)NC(=O)C3CNCCN3C(=O)C3CC3)ncc12 (racemic) [SC-012, rac-1-(cyclopropanecarbonyl)-N-(2-(8-methylimidazo[1,5-a]pyridin-3-yl)propan-2-yl)piperazine-2-carboxamide]	6600	
Cc1cccn2c(C(C)(C)NC(=O)[C@@H]3CN(Cc4cccnc4)CCN3)ncc12 [SC-061, (S)-N-(2-(8-methylimidazo[1,5-a]pyridin-3-yl)propan-2-yl)-4-(pyridin-3-ylmethyl)piperazine-2-carboxamide]	1700	
Cc1cccn2c(C(C)(C)NC(=O)[C@@H]3CNCCN3CC3(C)COC3)ncc12 [SC-031, (S)-N-(2-(8-methylimidazo[1,5-a]pyridin-3-yl)propan-2-yl)-1-((3-methyloxetan-3-yl)methyl)piperazine-2-carboxamide]	12	
